pIC50: −log10 of the molar value. In brackets after ≈: the same amount, converted by molar mass.
How the values were obtained:
[1] = tested on: Mycolicibacterium smegmatis; assay: Antibiofilm activity against Mycobacterium smegmatis after 5 weeks; type: functional
[2] = tested on: Mycobacterium tuberculosis; assay: Antimycobacterial activity against Mycobacterium tuberculosis incubated for overnight by NCCLS broth dilution method; type: functional
[3] = tested on: Mycobacterium tuberculosis; assay: Antimycobacterial activity against Mycobacterium tuberculosis assessed as diameter of inhibition zone at 40 ug/disc; type: functional; settings: read-out: IZ
[4] = tested on: Mycolicibacterium smegmatis; assay: Antimycobacterial activity against Mycobacterium smegmatis MC2 155 by broth dilution method; type: functional
[5] = tested on: Mycobacterium tuberculosis; assay: Antimycobacterial activity against Mycobacterium tuberculosis H37Rv by broth dilution method; type: functional
[6] = tested on: Mycobacterium tuberculosis; assay: Antimycobacterial activity against Mycobacterium tuberculosis H37Ra; type: functional
[7] = tested on: Mycolicibacterium smegmatis; assay: Antimycobacterial activity against Mycobacterium smegmatis; type: functional
[8] = tested on: Mycobacterium tuberculosis; assay: Antimycobacterial activity against Mycobacterium tuberculosis H37Rv assessed as inhibition of mycobacterial growth at 12 ug/ml relative to control; type: functional
[9] = tested on: Mycobacterium tuberculosis; assay: Antimycobacterial activity against Mycobacterium tuberculosis H37Rv by Alamar Blue assay; type: functional
[10] = molecular target: T1, Phosphotyrosine protein phosphatase (Mycobacterium tuberculosis, UniProt A0A045ISB3); assay: Inhibition of Mycobacterium tuberculosis Protein Tyrosine Phosphatase B
T1 sequence (A0A045ISB3 whole entry): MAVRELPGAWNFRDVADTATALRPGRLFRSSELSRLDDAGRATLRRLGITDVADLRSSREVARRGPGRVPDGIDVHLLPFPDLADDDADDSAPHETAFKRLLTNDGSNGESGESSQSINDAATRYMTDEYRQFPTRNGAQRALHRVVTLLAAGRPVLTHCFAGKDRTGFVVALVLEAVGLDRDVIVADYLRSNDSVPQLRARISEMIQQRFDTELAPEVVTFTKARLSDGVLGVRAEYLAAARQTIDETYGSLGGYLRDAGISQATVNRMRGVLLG

[11] = tested on: Mycobacterium tuberculosis; assay: Antimycobacterial activity against Mycobacterium tuberculosis H37Rv; type: functional, organism-based
[12] = molecular target: T2, Enoyl-[acyl-carrier-protein] reductase [NADH] (Mycobacterium tuberculosis) (UniProt P9WGR1); assay: Inhibition of Mycobacterium tuberculosis InhA enzyme at 10 uM relative to control
T2 sequence (whole entry): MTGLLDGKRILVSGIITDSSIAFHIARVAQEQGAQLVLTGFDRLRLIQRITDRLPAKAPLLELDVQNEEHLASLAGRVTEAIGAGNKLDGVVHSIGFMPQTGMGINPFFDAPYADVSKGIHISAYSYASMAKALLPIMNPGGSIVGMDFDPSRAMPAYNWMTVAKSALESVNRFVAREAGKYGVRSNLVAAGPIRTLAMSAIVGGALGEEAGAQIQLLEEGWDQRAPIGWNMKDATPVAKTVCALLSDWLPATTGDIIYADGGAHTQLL

Mycolicibacterium vaccae = assay: Antimycobacterial activity against Mycobacterium vaccae assessed as diameter of inhibition zone at 50 ug/disc; type: functional; settings: read-out: IZ
[13] = tested on: Mycobacterium tuberculosis; assay: Antimycobacterial activity against Mycobacterium tuberculosis H37Rv ATCC 27294 by Alamar Blue staining-based broth microdilution assay; type: functional
Mycolicibacterium phlei = assay: Antimycobacterial activity against Mycobacterium phlei assessed as diameter of inhibition zone at 20 ug/disc; type: functional; settings: read-out: IZ
[14] = Inhibition of Mycobacterium PknG

For `CC(C)=C/C=C\[C@H](C)[C@H]1CC[C@]2(C)C[C@@H]3C(C)=CC(=O)[C@H]3/C(C=O)=C\C[C@@H]12`, the MIC [1] was 17 µM (≈ 6.23 µg/mL).
With `CN1C(=O)[C@]23CC4=CC=C[C@H](O)[C@H]4N2C(=O)[C@@]1(CO)SS3` [GLIOTOXIN] the MIC [2] was less than 0.03 µM.
`COc1cc(OC)c2c(O)c3c(=O)cc(C)oc3c(-c3c4cc(O)cc(OC)c4c(O)c4c(=O)cc(C)oc34)c2c1` gave a zone of inhibition at 40 µg/disc [3] of 11 mm.
For `C/C=C/C[C@@H]1NC(=O)[C@H](CC(C)C)N2C(=O)[C@H](C[C@H](C)[C@@H]2O)N(C)C(=O)[C@H](C)NC(=O)[C@H](Cc2ccc(O)c([N+](=O)[O-])c2)NC(=O)[C@H](CC(C)C)N(C)C(=O)[C@H](Cc2cn(C(C)(C)[C@H]3CO3)c3ccccc23)NC1=O`, the MIC [4] was 0.12 µM (≈ 0.125 µg/mL).
For `C=CC(C)(C)n1cc(C[C@@H]2NC(=O)[C@H](C/C=C/C)NC(=O)[C@H](CC(C)C)N3C(=O)[C@H](C[C@H](C)[C@H]3O)N(C)C(=O)[C@H](C)NC(=O)[C@H](Cc3ccc(O)c([N+](=O)[O-])c3)NC(=O)[C@H](CC(C)C)N(C)C2=O)c2ccccc21`, the MIC [5] was 0.0098 µM (≈ 0.0101 µg/mL).
`C/C=C/C[C@@H]1NC(=O)[C@H](CC(C)C)N2C(=O)[C@H](C[C@H](C)[C@H]2O)N(C)C(=O)[C@H](C)NC(=O)[C@H](Cc2ccc(O)c([N+](=O)[O-])c2)NC(=O)[C@H](CC(C)C)N(C)C(=O)[C@H](Cc2cn(C(C)(C)[C@H]3CO3)c3ccccc23)NC1=O` showed an MIC [4] of 0.12 µM (≈ 0.125 µg/mL).
With `C1=C2CCCC/C=C\C=C\CCN3CC[C@@H]4[C@H](CCCCCC/C=C\C=C/CCN(C2)C[C@H]14)C3` (relative stereo) [HALICYCLAMINE A] the MIC [6] was 2.16 to 10.8 µM (≈ 1 to 5.01 µg/mL) and the MIC [7] was 2.16 to 10.8 µM (≈ 1 to 5.01 µg/mL).
For `C/C=C1\NC(=O)[C@H](Cc2ccccc2)NC(=O)[C@@H](C(C)C)NC(=O)[C@@H]([C@@H](C)CC)NC(=O)[C@H](NC(=O)[C@H](NC(=O)[C@H](CCCN)NC(=O)[C@H]2CCCN2C(=O)[C@H](NC(=O)[C@@H](NC(=O)[C@@H](NC(=O)[C@H](NC(=O)CCCC(C)C)C(C)C)[C@@H](C)O)C(C)C)C(C)C)[C@@H](C)CC)[C@@H](C)OC(=O)[C@H](C(C)C)NC1=O`, the inhibition at 12 µg/mL [8] was 67%.
`C[C@@H]1C[C@H](C)C(=O)/C=C/[C@@H]2[C@@H](O)[C@H]3OC4=C(C(=O)O[C@@]42C[C@H]3C)C1=O` (stereo in doubt; (-)-145) gave an MIC ([9]; Mycobacterium tuberculosis, H37Rv, read-out: MIC) of 3.6 µM (≈ 1.25 µg/mL).
For `CC(=O)c1cc(C)c(O)c(CC2=C(C)C(=O)C(O)=C(C)C2=O)c1O`, the pIC50 [10] was 5.86.
For `C1=C\CCCC[C@@H]2CN3CCCC/C=C\CCCC[C@H]4C[C@H](CN(CCCCCC/1)C4)[C@H]2CC3` (relative stereo), the MIC [6] was 2.14 µM (≈ 1 µg/mL).
With `CCCCCCCc1cc(O)c(CCCCCC)c(=O)o1` [PSEUDOPYRONINES B] the MIC [11] was 2.65 to 5.31 µM (≈ 0.78 to 1.56 µg/mL) and the inhibition [12] was 12%.
Work on `C[C@@H]1C[C@H](C)C(=O)/C=C/[C@@H]2[C@@H](O)[C@H]3OC4=C(C(=O)O[C@@]42C[C@H]3C)C1=O` (stereo in doubt; (+)-145) yielded an MIC [9] of 7.2 µM (≈ 2.49 µg/mL).
For `CCC(C)C(=O)N[C@H](Cc1ccccc1)C(=O)NC1C(=O)N[C@H](CC(C)C)C(=O)N[C@H](Cc2ccccc2)C(=O)N[C@H](CC(C)C)C(=O)N[C@H]([C@H](C)O)C(=O)N[C@@H](CO)C(=O)O[C@@H]1C` (stereo partly specified), the inhibition at 12 µg/mL [8] was 83%.
In the case of `CC(C)=C/C=C\[C@H](C)[C@H]1CC[C@]2(C)C[C@H]3[C@H](C(=O)C[C@@]3(C)O)/C(C=O)=C\C[C@@H]12`, the MIC [1] was 4.1 µM (≈ 1.58 µg/mL).
`CC[C@H]1/C=C/[C@@H]([C@@H](O)C=C(C)C)OC(=O)/C(C)=C\CC(=O)Nc2cc(O)cc3c2O[C@@]2(CC1)CC(=O)[C@@H](C)[C@@H]3O2` gave a zone of inhibition at 50 µg/disc (Mycolicibacterium vaccae) of 19 mm.
`CC[C@H]1/C=C/[C@H](O)[C@H](C=C(C)C)OC(=O)/C(C)=C/CC(=O)Nc2cc(O)cc3c2O/C(=C\C(=O)CC1)C(C)=C3` gave a zone of inhibition at 50 µg/disc (Mycolicibacterium vaccae) of 12 mm.
`CCCCCCC[C@@H]1C[C@@H]2CCC3=C(C(=O)OC(C)CCCCCC[C@@H]4C[C@@H]5CC[C@@H]6C[C@H](C)NC(=N4)N65)C(C)N=C(N1)N32` (stereo partly specified) showed an MIC [13] of 5.23 µM (≈ 3.18 µg/mL).
For `C1=C\CCCCN2C[C@H]3CCCC/C=C\CCCCN4CC[C@@H]([C@H](CCCCCC/1)C4)[C@H](C3)C2` (relative stereo), the MIC [6] was 5.34 µM (≈ 2.5 µg/mL).
Compound `CC(C)=CCOc1cc(O)c2c3c(c(O)cc(C)c13)C(=O)OC2=O` has a zone of inhibition at 20 µg/disc (Mycolicibacterium phlei) of 16 mm.
With `CCCCCC(=O)c1c(O)cc(CCCCC)oc1=O` the MIC [11] was 2.79 µM (≈ 0.782 µg/mL) and the inhibition [12] was 68%.
Work on `CC(C)=C/C=C\[C@H](C)[C@H]1CC[C@]2(C)C[C@H]3[C@@H](C(=O)C[C@@]3(C)O)/C(C=O)=C\C[C@@H]12` yielded an MIC [1] of 65 µM (≈ 25 µg/mL).
`CC(=O)c1cc(C)c(O)c(Cc2c(O)cc(-c3ccc(O)c(O)c3)oc2=O)c1O` gave a pIC50 [10] of 6.80.
`CC[C@H]1/C=C/[C@@H]([C@@H](O)C=C(C)C)OC(=O)/C(C)=C\[C@@H]2C(=O)NC3=CC(=O)c4c(cc(C)c(O)c4C(=O)CC1)[C@@]32O` gave a zone of inhibition at 50 µg/disc (Mycolicibacterium vaccae) of 12 mm.
`Cc1cc(O)c2c3c(c(O)c4c(c13)O[C@@H](C)[C@]4(C)CO)C(=O)OC2=O` showed a zone of inhibition at 20 µg/disc (Mycolicibacterium phlei) of 20 mm.
Compound `C=CC(C)(C)n1cc(C[C@@H]2NC(=O)[C@H](C/C=C/C)NC(=O)[C@H](CC(C)C)N3C(=O)[C@H](C[C@H](C)[C@@H]3O)N(C)C(=O)[C@H](C)NC(=O)[C@H](Cc3ccc(O)c([N+](=O)[O-])c3)NC(=O)[C@H](CC(C)C)N(C)C2=O)c2ccccc21` has an MIC [5] of 0.0098 µM (≈ 0.0101 µg/mL).
`CC[C@H](C)/C=C(C)/C=C/C1=CC2=C(Cl)C(=O)[C@](C)(OC(C)=O)C(=O)C2=CO1` [SCLEROTIORIN] showed a pIC50 [14] of 4.12.
In the case of `CC(C)=CCOc1cc(O)c2c3c(c(O)cc(C)c13)OC2=O`, the zone of inhibition at 20 µg/disc (Mycolicibacterium phlei) was 22 mm.

From ChEMBL document CHEMBL4400517, “Marine natural products as potential anti-tubercular agents” (Eur J Med Chem, 2019)
